Results from publication PMC7162861, “Synthesis, cytotoxicity, pharmacokinetic profile, binding with DNA and BSA of new imidazo[1,2-a]pyrazine-benzo[d]imidazol-5-yl hybrids” (Scientific Reports, 2020).

Key:
A549/ATCC = experiment: NCI cytotoxicity screen, Non-Small Cell Lung Cancer panel; format: cell-based; details: Homo sapiens; A549/ATCC; single dose 10 µM; negative = lethal; read-out: Percent growth inhibition
Method: (§1) Cytotoxicity was performed at National Cancer Institute (NCI), Bethesda, USA as per their protocols.

EXVX = experiment: as above; format: cell-based; details: Homo sapiens; EXVX; single dose 10 µM; negative = lethal; read-out: Percent growth inhibition
Method: as §1

HOP-62 = experiment: as above; format: cell-based; details: Homo sapiens, single dose 10 µM, negative = lethal, read-out: Percent growth inhibition
Method: as §1

HOP-92 = experiment: as above; format: cell-based; details: Homo sapiens, single dose 10 µM, negative = lethal, read-out: Percent growth inhibition
Method: as §1

NCI-H460 = experiment: as above; format: cell-based; details: Homo sapiens, single dose 10 µM, negative = lethal, read-out: Percent growth inhibition
Method: as §1

COLO 205 = experiment: NCI cytotoxicity screen, Colon Cancer panel; format: cell-based; details: Homo sapiens, single dose 10 µM, negative = lethal, read-out: Percent growth inhibition
Method: as §1

HCT-15 = experiment: NCI cytotoxicity screen, Colon Cancer panel; format: cell-based; details: Homo sapiens, single dose 10 µM, negative = lethal, read-out: Percent growth inhibition
Method: as §1

HCC-2998 = experiment: NCI cytotoxicity screen, Colon Cancer panel; format: cell-based, human; details: Homo sapiens; HCC-2998; single dose 10 µM; negative = lethal; read-out: Percent growth inhibition
Method: as §1

KM12 = experiment: NCI cytotoxicity screen, Colon Cancer panel; format: cell-based, human; details: Homo sapiens, single dose 10 µM, negative = lethal, read-out: Percent growth inhibition
Method: as §1

SW-620 = experiment: NCI cytotoxicity screen, Colon Cancer panel; format: cell-based, human; details: Homo sapiens, single dose 10 µM, negative = lethal, read-out: Percent growth inhibition
Method: as §1

SF-268 = experiment: NCI cytotoxicity screen, CNS Cancer panel; format: cell-based; details: Homo sapiens, single dose 10 µM, negative = lethal, read-out: Percent growth inhibition
Method: as §1

SF-295 = experiment: NCI cytotoxicity screen, CNS Cancer panel; format: cell-based; details: Homo sapiens, single dose 10 µM, negative = lethal, read-out: Percent growth inhibition
Method: as §1

SF-539 = experiment: NCI cytotoxicity screen, CNS Cancer panel; format: cell-based; details: Homo sapiens, single dose 10 µM, negative = lethal, read-out: Percent growth inhibition
Method: as §1

SNB-19 = experiment: NCI cytotoxicity screen, CNS Cancer panel; format: cell-based; details: Homo sapiens; SNB-19; single dose 10 µM; negative = lethal; read-out: Percent growth inhibition
Method: as §1

SNB-75 = experiment: NCI cytotoxicity screen, CNS Cancer panel; format: cell-based; details: Homo sapiens, single dose 10 µM, negative = lethal, read-out: Percent growth inhibition
Method: as §1

U251 = experiment: NCI cytotoxicity screen, CNS Cancer panel; format: cell-based; details: Homo sapiens, U-251; U251; single dose 10 µM; negative = lethal; read-out: Percent growth inhibition
Method: as §1

LOX IMVI = experiment: NCI cytotoxicity screen, Melanoma panel; format: cell-based, human; details: Homo sapiens, single dose 10 µM, negative = lethal, read-out: Percent growth inhibition
Method: as §1

M14 = experiment: NCI cytotoxicity screen, Melanoma panel; format: cell-based, human; details: Homo sapiens, single dose 10 µM, negative = lethal, read-out: Percent growth inhibition
Method: as §1

UACC-62 = experiment: NCI cytotoxicity screen, Melanoma panel; format: cell-based, human; details: Homo sapiens, single dose 10 µM, negative = lethal, read-out: Percent growth inhibition
Method: as §1

MALME-3M = experiment: NCI cytotoxicity screen, Melanoma panel; format: cell-based; details: Homo sapiens; MALME-3M; single dose 10 µM; negative = lethal; read-out: Percent growth inhibition
Method: as §1

MDA-MB-435 = experiment: NCI cytotoxicity screen, Melanoma panel; format: cell-based; details: Homo sapiens, MDA-MB-435, read-out: Percent growth inhibition
Method: as §1

SK-MEL-28 = experiment: NCI cytotoxicity screen, Melanoma panel; format: cell-based; details: Homo sapiens, single dose 10 µM, negative = lethal, read-out: Percent growth inhibition
Method: as §1

SK-MEL-2 = experiment: NCI cytotoxicity screen, Melanoma panel; format: cell-based; details: Homo sapiens, single dose 10 µM, negative = lethal, read-out: Percent growth inhibition
Method: as §1

SK-MEL-5 = experiment: NCI cytotoxicity screen, Melanoma panel; format: cell-based; details: Homo sapiens, single dose 10 µM, negative = lethal, read-out: Percent growth inhibition
Method: as §1

UACC-257 = experiment: NCI cytotoxicity screen, Melanoma panel; format: cell-based; details: Homo sapiens, single dose 10 µM, negative = lethal, read-out: Percent growth inhibition
Method: as §1

IGROV1 = experiment: NCI cytotoxicity screen, Ovarian Cancer panel; format: cell-based; details: Homo sapiens, IGROV-1, single dose 10 µM, negative = lethal, read-out: Percent growth inhibition
Method: as §1

NCI/ADR-RES = experiment: NCI cytotoxicity screen, Ovarian Cancer panel; format: cell-based; details: Homo sapiens, single dose 10 µM, negative = lethal, read-out: Percent growth inhibition
Method: as §1

OVCAR-4 = experiment: NCI cytotoxicity screen, Ovarian Cancer panel; format: cell-based; details: Homo sapiens; OVCAR-4; single dose 10 µM; negative = lethal; read-out: Percent growth inhibition
Method: as §1

OVCAR-5 = experiment: NCI cytotoxicity screen, Ovarian Cancer panel; format: cell-based; details: Homo sapiens, single dose 10 µM, negative = lethal, read-out: Percent growth inhibition
Method: as §1

OVCAR-8 = experiment: NCI cytotoxicity screen, Ovarian Cancer panel; format: cell-based; details: Homo sapiens, single dose 10 µM, negative = lethal, read-out: Percent growth inhibition
Method: as §1

SK-OV-3 = experiment: NCI cytotoxicity screen, Ovarian Cancer panel; format: cell-based; details: Homo sapiens, single dose 10 µM, negative = lethal, read-out: Percent growth inhibition
Method: as §1

OVCAR-3 = experiment: NCI cytotoxicity screen, Ovarian Cancer panel; format: cell-based, human; details: Homo sapiens; OVCAR-3; single dose 10 µM; negative = lethal; read-out: Percent growth inhibition
Method: as §1

786-0 = experiment: NCI cytotoxicity screen, Renal Cancer panel; format: cell-based, human; details: Homo sapiens, single dose 10 µM, negative = lethal, read-out: Percent growth inhibition
Method: as §1

TK-10 = experiment: NCI cytotoxicity screen, Renal Cancer panel; format: cell-based, human; details: Homo sapiens, single dose 10 µM, negative = lethal, read-out: Percent growth inhibition
Method: as §1

A498 = experiment: NCI cytotoxicity screen, Renal Cancer panel; format: cell-based; details: Homo sapiens, single dose 10 µM, negative = lethal, read-out: Percent growth inhibition
Method: as §1

ACHN = experiment: NCI cytotoxicity screen, Renal Cancer panel; format: cell-based; details: Homo sapiens, single dose 10 µM, negative = lethal, read-out: Percent growth inhibition
Method: as §1

RXF 393 = experiment: NCI cytotoxicity screen, Renal Cancer panel; format: cell-based; details: Homo sapiens, single dose 10 µM, negative = lethal, read-out: Percent growth inhibition
Method: as §1

SN12C = experiment: NCI cytotoxicity screen, Renal Cancer panel; format: cell-based; details: Homo sapiens, single dose 10 µM, negative = lethal, read-out: Percent growth inhibition
Method: as §1

UO-31 = experiment: NCI cytotoxicity screen, Renal Cancer panel; format: cell-based; details: Homo sapiens, single dose 10 µM, negative = lethal, read-out: Percent growth inhibition
Method: as §1

DU-145 = experiment: NCI cytotoxicity screen, Prostate Cancer panel; format: cell-based, human; details: Homo sapiens, single dose 10 µM, negative = lethal, read-out: Percent growth inhibition
Method: as §1

PC-3 = experiment: NCI cytotoxicity screen, Prostate Cancer panel; format: cell-based, human; details: Homo sapiens, single dose 10 µM, negative = lethal, read-out: Percent growth inhibition
Method: as §1

[1] = Experimental log P, shake-flask method; format: physicochemical; details: n-octanol/phosphate buffer pH 7.4, read-out: Exp. Log P
Method: Partition coefficients or experimental log P values of all synthesized compounds (9–23, 30 and 31) were calculated using the shake-flask method. Log P values were determined using n-octanol and phosphate buffer (pH = 7.4) at 10:1 ratio of volumes. Stock solutions (10^−3 M) of compounds were prepared in DMSO. Glass vials were used to make final solutions i.e. stock solution (250 µL) and phosphate buffer (125 µL). To record the absorbance, wavelength was selected based on λmax of the respective compound. Initial absorbance (Ai) for every compound was noted consuming the stock solution in the buffer phase. Now added n-octanol to every vial and shaken well using a mechanical shaker for 50 minutes. To get separation of both phases, glass vials were centrifuged for 35 min. at 2500 rpm. Then, the layer of octanol was separated from glass vial. The final absorbance (Af) of each compound was recorded by using the buffer layer. The values of P for compounds were determined by the following equation (Eq. 8):8 P=Ai−Af/Af×Vw/Vo

CAKI-1 = experiment: NCI cytotoxicity screen, Renal Cancer panel; format: cell-based; details: Homo sapiens; CAKI-1; single dose 10 µM; negative = lethal; read-out: Percent growth inhibition
Method: as §1

Question: What does the source list for COc1ccc(-c2cn3ccnc3c(-c3ccc4c(c3)ncn4C3CCCCC3)n2)cc1 [Compound 10, 8-(1-cyclohexyl-1H-benzo[d]imidazol-5-yl)-6-(4-methoxyphenyl)imidazo[1,2-a]pyrazine]?
Answer: inhibition at 10 µM (A549/ATCC): 7.33%; inhibition at 10 µM (EXVX): 7.85%; inhibition at 10 µM (HOP-62): 3.33%; inhibition at 10 µM (HOP-92): 17.4%; inhibition at 10 µM (NCI-H460): 2.9%; inhibition at 10 µM (COLO 205): < 1%; inhibition at 10 µM (HCT-15): 11.9%; inhibition at 10 µM (HCC-2998): < 1%; inhibition at 10 µM (KM12): 2.27%; inhibition at 10 µM (SW-620): < 1%; inhibition at 10 µM (SF-268): 3.96%; inhibition at 10 µM (SF-295): 12.5%; inhibition at 10 µM (SF-539): 9.71%; inhibition at 10 µM (SNB-19): 4.26%; inhibition at 10 µM (SNB-75): 15.9%; inhibition at 10 µM (U251): 3.4%; inhibition at 10 µM (LOX IMVI): 7.86%; inhibition at 10 µM (M14): 9.96%; inhibition at 10 µM (UACC-62): 1.25%; inhibition at 10 µM (MALME-3M): < 1%; inhibition at 10 µM (MDA-MB-435): 6.92%; inhibition at 10 µM (SK-MEL-28): 4.86%; inhibition at 10 µM (SK-MEL-2): 9.88%; inhibition at 10 µM (SK-MEL-5): 5.95%; inhibition at 10 µM (UACC-257): < 1%; inhibition at 10 µM (IGROV1): 5.82%; inhibition at 10 µM (NCI/ADR-RES): 1.93%; inhibition at 10 µM (OVCAR-4): 7.51%; inhibition at 10 µM (OVCAR-5): 1.45%; inhibition at 10 µM (OVCAR-8): 7.75%; inhibition at 10 µM (SK-OV-3): 5.37%; inhibition at 10 µM (OVCAR-3): < 1%; inhibition at 10 µM (786-0): 12.7%; inhibition at 10 µM (TK-10): < 1%; inhibition at 10 µM (A498): < 1%; inhibition at 10 µM (ACHN): 10.9%; inhibition at 10 µM (RXF 393): < 1%; inhibition at 10 µM (SN12C): < 1%; inhibition at 10 µM (UO-31): 33.5%; inhibition at 10 µM (DU-145): < 1%; inhibition at 10 µM (PC-3): 22.6%; logP [1]: 1.44; melting point: 196 to 199 °C

Question: What does the source list for Fc1ccc(-c2cn3ccnc3c(-c3ccc4c(c3)ncn4C3CCCCC3)n2)cc1 [Compound 13, 8-(1-cyclohexyl-1H-benzo[d]imidazol-5-yl)-6-(4-fluorophenyl)imidazo[1,2-a]pyrazine]?
Answer: inhibition at 10 µM (A549/ATCC): 8.95%; inhibition at 10 µM (EXVX): < 1%; inhibition at 10 µM (HOP-62): 13.2%; inhibition at 10 µM (HOP-92): 7.05%; inhibition at 10 µM (NCI-H460): < 1%; inhibition at 10 µM (COLO 205): < 1%; inhibition at 10 µM (HCT-15): 4.85%; inhibition at 10 µM (HCC-2998): < 1%; inhibition at 10 µM (KM12): 7.3%; inhibition at 10 µM (SW-620): < 1%; inhibition at 10 µM (SF-268): 5.13%; inhibition at 10 µM (SF-295): < 1%; inhibition at 10 µM (SF-539): < 1%; inhibition at 10 µM (SNB-19): < 1%; inhibition at 10 µM (SNB-75): < 1%; inhibition at 10 µM (U251): 3.57%; inhibition at 10 µM (LOX IMVI): 0.76%; inhibition at 10 µM (M14): 0.73%; inhibition at 10 µM (UACC-62): 2.44%; inhibition at 10 µM (MALME-3M): < 1%; inhibition at 10 µM (MDA-MB-435): < 1%; inhibition at 10 µM (SK-MEL-28): < 1%; inhibition at 10 µM (SK-MEL-2): 6.3%; inhibition at 10 µM (SK-MEL-5): 2.9%; inhibition at 10 µM (UACC-257): < 1%; inhibition at 10 µM (IGROV1): 6.4%; inhibition at 10 µM (NCI/ADR-RES): 2.36%; inhibition at 10 µM (OVCAR-4): < 1%; inhibition at 10 µM (OVCAR-5): < 1%; inhibition at 10 µM (OVCAR-8): 3.09%; inhibition at 10 µM (SK-OV-3): < 1%; inhibition at 10 µM (OVCAR-3): < 1%; inhibition at 10 µM (786-0): 3.12%; inhibition at 10 µM (TK-10): < 1%; inhibition at 10 µM (ACHN): < 1%; inhibition at 10 µM (CAKI-1): < 1%; inhibition at 10 µM (RXF 393): 36%; inhibition at 10 µM (SN12C): < 1%; inhibition at 10 µM (UO-31): 22.8%; inhibition at 10 µM (DU-145): < 1%; inhibition at 10 µM (PC-3): 10.2%; logP [1]: 1.26; melting point: 187 to 189 °C
